Consider 14 compounds from PubChem BioAssay AID330 (DTP/NCI, 2004).

Where “and” joins values, the source holds several entries; their conditions need not be identical. Identical values can stand only once. Toxic doses and inconclusive results are not listed.

The assay has as its system P388 leukemia ip, CD2F1 mice, survival T/C. Description: NCI In Vivo Anticancer Drug Screen. Data for tumor model P388 Leukemia (intraperitoneal) in CD2F1 (CDF1) mice. Particulars: endpoint: median survival time, higher = longer survival. The method, boiled down:
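Mice carrying the transplanted tumor received test compound or vehicle. Survival was recorded in each group, and the value is the treated-group measurement divided by that of the vehicle-treated control group.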

Where [1] appears, read: dose: 60.0 mg/kg/injection, schedule: Q01DX005 (ip), vehicle: saline with Tween-80.
Where [2] appears, read: dose: 120.0 mg/kg/injection, schedule: Q01DX005 (ip), vehicle: saline with Tween-80.
Where [3] appears, read: dose: 240.0 mg/kg/injection, schedule: Q01DX005 (ip), vehicle: saline with Tween-80.
The mark [4] stands for this setting: dose: 100.0 mg/kg/injection, schedule: Q01DX009 (ip), vehicle: saline with Tween-80.
Setting [5] is: dose: 200.0 mg/kg/injection, schedule: Q01DX009 (ip), vehicle: saline with Tween-80.

As for `O=C1NCCN1c1cccc([N+](=O)[O-])c1`, the T/C reads like this: (dose: 12.5 mg/kg/injection, schedule: Q01DX009 (ip), vehicle: saline sonified) 90 % of control; (dose: 25.0 mg/kg/injection, schedule: Q01DX009 (ip), vehicle: saline sonified) 100 % of control; (dose: 50.0 mg/kg/injection, schedule: Q01DX009 (ip), vehicle: saline sonified) 90 % of control.
Consider `Nc1ccccc1C(=O)/C=C/c1ccccc1`, for which the T/C runs as follows: under setting [1], 100 % of control; under setting [2], 100 % of control; under setting [3], 100 % of control.
Turning to `COc1cccc2c1C(=O)c1c(O)c3c(c(O)c1C2=O)C[C@@](O)(C(=O)CN1CCN(C)CC1)C[C@@H]3OC1CC(N)C(O)C(C)O1` (stereo partly drawn), the T/C is 108 % of control (dose: 1.3 mg/kg/injection, schedule: Q01DX001 (ip), vehicle: water); 115 % of control (dose: 1.56 mg/kg/injection, schedule: Q01DX009 (ip), vehicle: water); 116 % of control (dose: 1.8 mg/kg/injection, schedule: Q01DX001 (ip), vehicle: water); 106 % of control (dose: 2.4 mg/kg/injection, schedule: Q01DX001 (ip), vehicle: water); 123 % of control (dose: 3.12 mg/kg/injection, schedule: Q01DX009 (ip), vehicle: water); 115 % of control (dose: 3.13 mg/kg/injection, schedule: Q01DX009 (ip), vehicle: water). For the same compound, the T/C by setting is: (dose: 3.2 mg/kg/injection, schedule: Q01DX001 (ip), vehicle: water) 109 % of control; (dose: 4.2 mg/kg/injection, schedule: Q01DX001 (ip), vehicle: water) 113 % of control; (dose: 5.6 mg/kg/injection, schedule: Q01DX001 (ip), vehicle: water) 115 % of control; (dose: 6.25 mg/kg/injection, schedule: Q01DX009 (ip), vehicle: water) 115 % of control; (dose: 7.5 mg/kg/injection, schedule: Q01DX001 (ip), vehicle: water) 117 % of control; (dose: 10.0 mg/kg/injection, schedule: Q01DX001 (ip), vehicle: water) 115 % of control. Also, the T/C is 117 % of control (dose: 12.5 mg/kg/injection, schedule: Q01DX001 (ip), vehicle: water); 161 % of control (dose: 18.8 mg/kg/injection, schedule: Q01DX009 (ip), vehicle: water); 119 % of control (dose: 25.0 mg/kg/injection, schedule: Q01DX001 (ip), vehicle: water); 115 % of control and 117 % of control (dose: 25.0 mg/kg/injection, schedule: Q01DX009 (ip), vehicle: water).
In the case of `COC1=CC2C3C(=O)NC(=O)C3C1C1CC(C#N)C21OC` (stereo not drawn), the T/C is 104 % of control (dose: 100.0 mg/kg/injection, schedule: Q01DX001 (ip), vehicle: saline with Tween-80); 114 % of control (dose: 200.0 mg/kg/injection, schedule: Q01DX001 (ip), vehicle: saline with Tween-80); 107 % of control (dose: 400.0 mg/kg/injection, schedule: Q01DX001 (ip), vehicle: saline with Tween-80).
In the case of `O=c1[nH]c(=O)n(C2CC(O)C(CO)O2)cc1I` (stereo not drawn), the T/C is 101 % of control (dose: 40.0 mg/kg/injection, schedule: Q01DX009 (ip), vehicle: saline with Tween-80); 105 % of control (dose: 80.0 mg/kg/injection, schedule: Q01DX009 (ip), vehicle: saline with Tween-80); 118 % of control under setting [4]; 110 % of control (dose: 100.0 mg/kg/injection, schedule: Q04DX003 (ip), vehicle: saline sonified); 104 % of control (dose: 160.0 mg/kg/injection, schedule: Q01DX009 (ip), vehicle: saline with Tween-80); 118 % of control under setting [5]. The T/C is 120 % of control (dose: 200.0 mg/kg/injection, schedule: Q04DX003 (ip), vehicle: saline sonified); 122 % of control (dose: 320.0 mg/kg/injection, schedule: Q01DX009 (ip), vehicle: saline with Tween-80); 118 % of control (dose: 400.0 mg/kg/injection, schedule: Q01DX009 (ip), vehicle: saline with Tween-80); 120 % of control (dose: 400.0 mg/kg/injection, schedule: Q04DX003 (ip), vehicle: saline sonified).
For `COC(=O)c1cc(OCC#CC#CCOc2ccc(O)c(C(=O)OC)c2)ccc1O`, the T/C was 95 % of control under setting [1], 89 % of control under setting [2] and 86 % of control under setting [3].
As for `CCOC(=O)C/[N+]([O-])=C/c1ccccc1`, the T/C is 100 % of control (dose: 12.5 mg/kg/injection, schedule: Q01DX009 (ip), vehicle: other); 98 % of control (dose: 25.0 mg/kg/injection, schedule: Q01DX009 (ip), vehicle: other); 117 % of control (dose: 50.0 mg/kg/injection, schedule: Q01DX009 (ip), vehicle: other); 100 % of control (dose: 100.0 mg/kg/injection, schedule: Q01DX009 (ip), vehicle: other); 100 % of control (dose: 200.0 mg/kg/injection, schedule: Q01DX009 (ip), vehicle: other).
Turning to `COC(=O)C(Cc1ccccc1)NC(=O)C(Cc1cnc[nH]1)N(C(=O)OCc1ccccc1)C(=O)OCc1ccccc1` (stereo not drawn), the T/C is 88 % of control (dose: 25.0 mg/kg/injection, schedule: Q01DX005 (ip), vehicle: saline with Tween-80); 91 % of control (dose: 50.0 mg/kg/injection, schedule: Q01DX005 (ip), vehicle: saline with Tween-80); 87 % of control (dose: 100.0 mg/kg/injection, schedule: Q01DX005 (ip), vehicle: saline with Tween-80); 89 % of control (dose: 200.0 mg/kg/injection, schedule: Q01DX005 (ip), vehicle: saline with Tween-80).
`OCCCCP12(OC(C(F)(F)F)(C(F)(F)F)c3ccccc31)OC(C(F)(F)F)(C(F)(F)F)c1ccccc12`: the T/C is 102 % of control (dose: 50.0 mg/kg/injection, schedule: Q01DX009 (ip), vehicle: Klucel (hydroxypropylcellulose) (HPC)); 100 % of control (dose: 100.0 mg/kg/injection, schedule: Q01DX009 (ip), vehicle: Klucel (hydroxypropylcellulose) (HPC)); 102 % of control (dose: 200.0 mg/kg/injection, schedule: Q01DX009 (ip), vehicle: Klucel (hydroxypropylcellulose) (HPC)).
`COc1ccc(N=c2nc3n4c(c(Cl)cc(Cl)c4n2)NC(C(Cl)(Cl)Cl)=N3)cc1`: the T/C was 93 % of control (dose: 60.0 mg/kg/injection, schedule: Q01DX005 (ip), vehicle: Klucel + Tween-80); 92 % of control (dose: 120.0 mg/kg/injection, schedule: Q01DX005 (ip), vehicle: Klucel + Tween-80); 96 % of control (dose: 240.0 mg/kg/injection, schedule: Q01DX005 (ip), vehicle: Klucel + Tween-80).
On to `CC[C@@]1(O)C[C@H](OC2CCC(OC3CC(OC(C)=O)C(OC(C)=O)C(C)O3)C(C)O2)c2c(O)c3c(c(O)c2[C@H]1C(=O)OC)C(=O)c1cccc(O)c1C3=O` (stereo partly drawn), for which the T/C was 100 % of control (dose: 3.13 mg/kg/injection, schedule: Q04DX003 (ip), vehicle: distilled water + Tween-80); 100 % of control (dose: 6.25 mg/kg/injection, schedule: Q04DX003 (ip), vehicle: distilled water + Tween-80); 101 % of control (dose: 12.5 mg/kg/injection, schedule: Q04DX003 (ip), vehicle: distilled water + Tween-80); 105 % of control (dose: 25.0 mg/kg/injection, schedule: Q04DX003 (ip), vehicle: distilled water + Tween-80); 103 % of control (dose: 50.0 mg/kg/injection, schedule: Q04DX003 (ip), vehicle: distilled water + Tween-80).
`OC(Nc1ncccn1)C(F)(F)F` (stereo not drawn): the T/C is 92 % of control (dose: 50.0 mg/kg/injection, schedule: Q01DX009 (ip), vehicle: saline with Tween-80); 111 % of control under setting [4]; 120 % of control under setting [5].
As for `Cc1ccc(C(F)(F)F)cc1N(O)C(C)(C)C`, the T/C reads like this: (dose: 50.0 mg/kg/injection, schedule: Q04DX003 (ip), vehicle: saline with Tween-80) 95 % of control; (dose: 100.0 mg/kg/injection, schedule: Q04DX003 (ip), vehicle: saline with Tween-80) 101 % of control; (dose: 200.0 mg/kg/injection, schedule: Q04DX003 (ip), vehicle: saline with Tween-80) 118 % of control.
Regarding `O=C(NCCCl)N1CCC(CN=c2cc3n(-c4ccc(Cl)cc4)c4ccccc4nc-3cc2Nc2ccc(Cl)cc2)CC1`, the T/C (dose: 7.5 mg/kg/injection, schedule: Q01DX005 (ip), vehicle: saline with Tween-80) was 88 % of control; the T/C (dose: 15.0 mg/kg/injection, schedule: Q01DX005 (ip), vehicle: saline with Tween-80) was 88 % of control; the T/C under setting [2] is 94 % of control; the T/C under setting [3] is 97 % of control.
